Results on 38 compounds are retold here after ChEMBL document CHEMBL4665661, “Design, synthesis, and biological activity evaluation of (-)-6-O-desmethylantofine analogues as potent anti-cancer agents” (Bioorg Med Chem, 2019).

The test system of one assay is HL-60. Put plainly: Antiproliferative activity against human HL-60 cells after 72 hrs by MTT assay. It is filed as functional, cell-based. The note with it: HL-60, 72 h.
The test system of a further assay is Bel-7402. Nature of the assay: Antiproliferative activity against human Bel-7402 cells after 72 hrs by SRB assay. In kind it is functional, cell-based. The note with it: Bel-7402, 72 h.

A value given as a limit tells only on which side of the number the result lay.

On to `COc1cc2c3c(c4ccc(OC(=O)N(C)C)cc4c2cc1OC)CN1CCC[C@H]1C3`, for which the IC50 in the assay with HL-60 and with Bel-7402 was greater than 10000 nM in each case.

`COc1cc2c3c(c4ccc(OC(C)=O)cc4c2cc1OC)CN1CCC[C@H]1C3`: the IC50 in the assay on HL-60 is 756 nM; with Bel-7402 it was 1110 nM.

As to `COc1cc2c3c(c4ccc(OC(=O)N(C)C)cc4c2cc1OC)CN1CCC[C@@H]1C3`, the results for the concentration for half-maximal inhibition (IC50) in the assay with HL-60 and in the assay with Bel-7402 were 2830 nM and 8260 nM, respectively.

Take `CC[C@H](C)[C@H](N)C(=O)OCCOc1ccc2c3c(c4cc(OC)c(OC)cc4c2c1)C[C@H]1CCCN1C3`: the 50% inhibitory concentration (IC50) in the assay on HL-60 is 505 nM; in the assay on Bel-7402 it was 584 nM.

In the case of `COc1cc2c3c(c4ccc(OC(=O)C5CCCCC5)cc4c2cc1OC)CN1CCC[C@@H]1C3`, the figures for the IC50 in the assay on HL-60 and in the assay with Bel-7402 were 674 nM and 235 nM, respectively.

On to `COc1cc2c3c(c4ccc(OC(=O)c5cccc6nnsc56)cc4c2cc1OC)CN1CCC[C@@H]1C3`, for which the IC50 in the assay on HL-60 came to 227 nM; in the assay with Bel-7402 it was 173 nM.

Take `COc1cc2c3c(c4ccc(OCCOC(=O)[C@@H](N)C(C)C)cc4c2cc1OC)CN1CCC[C@@H]1C3`: the results for the IC50 in the assay on HL-60 and in the assay with Bel-7402 were 908 nM and 974 nM, respectively.

For the compound `COc1cc2c3c(c4ccc(OCCOC(=O)[C@@H](N)Cc5c[nH]c6ccccc56)cc4c2cc1OC)CN1CCC[C@@H]1C3`, the IC50 in the assay on HL-60 was 112 nM; in the assay on Bel-7402 it was 248 nM.

Turning to `COc1cc2c3c(c4ccc(OC(=O)C(C)C)cc4c2cc1OC)CN1CCC[C@@H]1C3`, the IC50 came out at 106 nM in the assay with HL-60 and 60 nM in the assay on Bel-7402.

For `COc1cc2c3c(c4ccc(OC(=O)C5CC5)cc4c2cc1OC)CN1CCC[C@H]1C3`, the IC50 in the assay with HL-60 turned out to be 611 nM; in the assay with Bel-7402 it was 877 nM.

In the case of `COc1cc2c3c(c4ccc(OC(=O)c5cccnc5)cc4c2cc1OC)CN1CCC[C@H]1C3`, the IC50 with HL-60 was 762 nM; with Bel-7402, 1770 nM.

As to `CCOC(=O)Oc1ccc2c3c(c4cc(OC)c(OC)cc4c2c1)C[C@H]1CCCN1C3`, the IC50 in the assay on HL-60 is 66 nM; in the assay with Bel-7402, 105 nM.

Consider `COc1cc2c3c(c4ccc(OCCOC(=O)[C@@H](N)C(C)C)cc4c2cc1OC)CN1CCC[C@H]1C3`, for which the IC50 is 7800 nM in the assay with HL-60 and greater than 10000 nM in the assay with Bel-7402.

As to `COc1cc2c3c(c4ccc(OCCO)cc4c2cc1OC)CN1CCC[C@@H]1C3`, the values for the IC50 with HL-60 and in the assay on Bel-7402 were 81 nM and 98 nM, respectively.

As for `COc1cc2c3c(c4ccc(OCCOC(=O)[C@H](C)N)cc4c2cc1OC)CN1CCC[C@H]1C3`, the IC50 came out at 1080 nM in the assay with HL-60 and 2830 nM in the assay with Bel-7402.

As for `COc1cc2c3c(c4ccc(OC(=O)C(C)(C)C)cc4c2cc1OC)CN1CCC[C@@H]1C3`, the IC50 was 245 nM in the assay with HL-60 and 294 nM in the assay with Bel-7402.

Take `COc1cc2c3c(c4ccc(OCCO)cc4c2cc1OC)CN1CCC[C@H]1C3`: the results for the IC50 in the assay on HL-60 and in the assay on Bel-7402 were 220 nM and 374 nM, respectively.

As for `COc1cc2c3c(c4ccc(OCCOC(=O)[C@@H](N)CC(C)C)cc4c2cc1OC)CN1CCC[C@@H]1C3`, the figures for the IC50 in the assay on HL-60 and with Bel-7402 were 580 nM and 1270 nM, respectively.

Turning to `COc1cc2c3c(c4ccc(OC(=O)C5CC5)cc4c2cc1OC)CN1CCC[C@@H]1C3`, the IC50 stood at 181 nM in the assay with HL-60 and 765 nM in the assay with Bel-7402.

Turning to `COc1cc2c3c(c4ccc(OC(=O)/C=C/c5ccc6c(c5)OCO6)cc4c2cc1OC)CN1CCC[C@@H]1C3`, the IC50 is 153 nM in the assay with HL-60 and 185 nM in the assay on Bel-7402.

As for `COc1cc2c3c(c4ccc(OC(=O)c5ccccc5N)cc4c2cc1OC)CN1CCC[C@@H]1C3`, the IC50 with HL-60 was determined as 25 nM; with Bel-7402, 83 nM.

`COc1cc2c3c(c4ccc(OC(=O)C(C)C)cc4c2cc1OC)CN1CCC[C@H]1C3`: the IC50 came to 683 nM with HL-60 and 1590 nM with Bel-7402.

Take `COc1cc2c3c(c4ccc(OC(=O)c5ccco5)cc4c2cc1OC)CN1CCC[C@@H]1C3`: the IC50 in the assay with HL-60 worked out at 178 nM; in the assay with Bel-7402, 504 nM.

Take `COc1cc2c3c(c4ccc(OCCOC(=O)[C@@H](N)Cc5ccccc5)cc4c2cc1OC)CN1CCC[C@H]1C3`: the IC50 in the assay on HL-60 worked out at 600 nM; in the assay with Bel-7402, 2280 nM.

`CCOC(=O)Oc1ccc2c3c(c4cc(OC)c(OC)cc4c2c1)C[C@@H]1CCCN1C3`: the IC50 came out at 379 nM in the assay with HL-60 and 2080 nM in the assay with Bel-7402.

Regarding `COc1cc2c3c(c4ccc(OC(=O)c5ccccc5)cc4c2cc1OC)CN1CCC[C@@H]1C3`, the figures for the IC50 in the assay on HL-60 and in the assay on Bel-7402 were 455 nM and 428 nM, respectively.

For the compound `COc1cc2c3c(c4ccc(OCC#N)cc4c2cc1OC)CN1CCC[C@H]1C3`, the results for the IC50 with HL-60 and in the assay on Bel-7402 were 301 nM and 200 nM, respectively.

For the compound `COc1cc2c3c(c4ccc(OC(=O)c5cccs5)cc4c2cc1OC)CN1CCC[C@@H]1C3`, the IC50 in the assay with HL-60 turned out to be 472 nM; in the assay on Bel-7402, 83 nM.

Turning to `COc1cc2c3c(c4ccc(O)cc4c2cc1OC)CN1CCC[C@@H]1C3`, the figures for the IC50 in the assay on HL-60 and with Bel-7402 were 4 nM and 26 nM, respectively.

For the compound `COc1cc2c3c(c4ccc(OCCOC(=O)[C@H](C)N)cc4c2cc1OC)CN1CCC[C@@H]1C3`, the half-inhibitory concentration (IC50) worked out at 494 nM in the assay with HL-60 and 642 nM in the assay with Bel-7402.

As to `COc1cc2c3c(c4ccc(OC(C)=O)cc4c2cc1OC)CN1CCC[C@@H]1C3`, the IC50 came out at 44 nM with HL-60 and 228 nM in the assay on Bel-7402.

Turning to `COc1cc2c3c(c4ccc(OC(=O)c5cccnc5)cc4c2cc1OC)CN1CCC[C@@H]1C3`, the IC50 worked out at 179 nM in the assay with HL-60 and 133 nM with Bel-7402.

Regarding `COc1cc2c3c(c4ccc(OCCOC(=O)[C@@H]5CCCN5)cc4c2cc1OC)CN1CCC[C@@H]1C3`, the IC50 in the assay on HL-60 was 233 nM; in the assay on Bel-7402, 280 nM.

For the compound `COc1cc2c3c(c4ccc(O)cc4c2cc1OC)CN1CCC[C@H]1C3`, the IC50 amounted to 50 nM in the assay on HL-60 and 292 nM with Bel-7402.

Take `COc1cc2c3c(c4ccc(OC(=O)C(C)(C)C)cc4c2cc1OC)CN1CCC[C@H]1C3`: the figures for the concentration for half-maximal inhibition (IC50) in the assay on HL-60 and with Bel-7402 were 219 nM and 1540 nM, respectively.

For `COc1cc2c3c(c4ccc(OC(=O)c5ccccc5)cc4c2cc1OC)CN1CCC[C@H]1C3`, the results for the IC50 in the assay with HL-60 and in the assay on Bel-7402 were 800 nM and 1090 nM, respectively.

On to `COc1cc2c3c(c4ccc(OC(=O)/C=C/C=C/c5ccc6c(c5)OCO6)cc4c2cc1OC)CN1CCC[C@@H]1C3`, for which the results for the 50% inhibitory concentration (IC50) in the assay with HL-60 and in the assay with Bel-7402 were 56 nM and 199 nM, respectively.

In the case of `COc1cc2c3c(c4ccc(OCCOC(=O)[C@@H](N)Cc5ccccc5)cc4c2cc1OC)CN1CCC[C@@H]1C3`, the values for the IC50 in the assay with HL-60 and with Bel-7402 were 568 nM and 669 nM, respectively.
